Reference: US5382578A, “Methods for treating convulsions and ischemia with substituted dibenzoxazepine compounds” (G. D. Searle & Co., priority 1993, dated 1995)
“Also recorded” adds a separate entry of the source. Where a name gives a salt, the structure may show the parent alone. Read-outs that look alike come from different tables or passages of the source.

Key:
mouse injected with PBQ = test: Writhing Assay (PBQ-induced writhing in mice); type: in vivo, Charles River male albino mice; details: for ED50: Mus musculus
Source text: The Writhing Assay is one of the most widely-used experimental procedures for measuring the analgesic activity of different narcotic and nonnarcotic analgesic agents, and involves the continuous, chemically-induced pain of visceral origin to an animal, such as a mouse or rat. [Gyires et al., Arch., int. Pharmacodyn, 267, 131-140 (1984); C. Vander Wende et al., Fed. Proc., 15, 494 (1956); Koster et al., Fed. Proc., 18, 412 (1959); and Witken et al., J. Pharmacol. exp. Ther., 133, 400-408 (1961).] Chemicals which may be used to induce this pain include phenylbenzoquinone (PBQ) and acetic acid. As a result of the chemical irritation to the animal, a characteristic stretching and writhing of the animal (dorsiflexion of the animal's back, extension of its hindlimbs and the strong contraction of its abdominal musculature) will generally occur. […] Drugs which reduce the number of writhes of the animal appear to restore the normal nociceptive threshold of the animal.
Charles River male albino mice, weighing 20 to 30 grams, were used in this assay.
Thirty minutes after subcutaneous or intragastric administration to ten mice of 30 mg per kilogram of body weight of a compound of the present invention ("test compound"), […] per 10 g of body weight of a 0,025% w/v solution of PBQ was injected intraperitoneally into each mouse. Ten mice which were given saline in place of a test compound of the invention were used as a control group.
Five minutes later, each mouse was individually placed into a glass beaker for observation, and the number of writhes occurring during the following ten-minute period was counted.
A test compound was considered to have produced analgesia in a mouse if, in accordance with the conditions set forth above, and under the test criteria employed for this assay, after the administration of 30 mg per kilogram of body weight of a compound of the present invention to the mouse, the number of writhes elicited by a mouse injected with PBQ was equal to, or less than, one-half the median number of writhes recorded for the saline-treated control group of mice that day, as described by Taber in "Predictive Value of Analgesic Assays in Mice and Rats," Advances in Biochemical Psychopharmacology, 8, 191 (1974).
The standard initial screening dose of a test compound employed in this assay was […] for both routes of administration. If this initial screening dose of the test compound produced analgesia in seven of ten mice, then the effect of additional doses of the test compound on the writhing response was evaluated, and then the ED50 dose was generally calculated. (The slopes of the dose-response curves for all test compounds analyzed were compared as described by Tallarida and Murray, Manual of Pharmacologic Calculations, Page 11 (Springer Verlag, New York, 1981)).

[1] = biological target: T1, prostaglandin E2-induced contractions of segments of guinea pig ileum (Cavia porcellus, UniProt A0A286XHJ6); test: Prostaglandin (PGE) Antagonism Assay, guinea pig ileum; type: cell-based; set-up: key to PGE in guinea pig ileum, activity: Active: the initial concentration used yielded at least a two-fold shift (dose ratio greater than or equal to 2) in the dose response curve for prostaglandin E2
T1 construct: Segments of ileum about 2 cm long were then cut and mounted in a 10-mL tissue bath; from tissue; host or cells: guinea pig ileum segments
T1 sequence (A0A286XHJ6 1-405): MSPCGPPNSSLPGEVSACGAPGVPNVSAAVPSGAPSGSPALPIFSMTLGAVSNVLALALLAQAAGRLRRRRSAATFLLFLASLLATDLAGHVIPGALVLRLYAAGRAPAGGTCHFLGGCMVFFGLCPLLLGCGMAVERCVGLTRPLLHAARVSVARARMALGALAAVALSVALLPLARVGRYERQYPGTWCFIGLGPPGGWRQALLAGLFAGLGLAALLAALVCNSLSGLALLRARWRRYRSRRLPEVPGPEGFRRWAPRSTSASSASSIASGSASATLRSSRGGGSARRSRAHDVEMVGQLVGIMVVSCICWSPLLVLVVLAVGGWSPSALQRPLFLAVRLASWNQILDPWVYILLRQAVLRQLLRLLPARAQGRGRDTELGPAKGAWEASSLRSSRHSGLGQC
Method: In order to determine the effectiveness of several of the compounds of the present invention ("test compounds") as prostaglandin E2 antagonists,a prostaglandin antagonism assay was conducted, as described below, to determine the ability of these compounds to inhibit prostaglandin E2 -induced contractions of segments of guinea pig ileum.
Male albino guinea pigs weighing 200 to 500 grams were sacrificed by cervical dislocation. The ilea were then quickly removed from the guinea pigs and placed in a modified Tyrode solution, a solution which is known to those skilled in the art, containing one-half of the usual amount of magnesium ions.
Segments of ileum about 2 cm long were then cut and mounted in a 10-mL tissue bath containing the modified Tyrode solution. The solution was maintained at 37° C. and aerated with a gaseous mixture of 95% oxygen and 5% carbon dioxide. Data for a control prostaglandin E2 dose response curve plotting concentration of prostaglandin E2 versus the intensity of contractions, detected isotonically, was then obtained by experimentally adjusting the dose of the prostaglandin E2 being injected into the tissue bath, in a manner known by those of skill in the art.
solutions or suspensions containing an initial concentration (3 micromolar) of a test compound in modified Tyrode solution ("test solutions/suspensions") were then separately substituted for the control bath solution. Each test solution/suspension was then kept in constant contact with the ileum tissue, except for brief periods to drain the bath in preparation for rinsing with fresh test solution/suspension. A second prostaglandin E2 dose response curve was then generated for prostaglandin E2 in the presence of a test compound.
A dose ratio of EC50 doses was then calculated from the results of each test in a manner known by those of skill in the art. A test compound was determined to be "active" if the initial concentration used yielded at least a two-fold shift (dose ratio greater than or equal to 2) in the dose response curve for prostaglandin E2.

[2] = test system: stimulant actions of prostaglandins on isolated smooth muscle preparations; details: literature; cited from earlier work
[3] = test system: urethane-anesthetized rats; details: literature; cited from earlier work
[4] = po, intragastric, read-out: Writhing Assay ED50 Dose, I.G.
[5] = sc, subcutaneous, read-out: Writhing Assay ED50 Dose, S.C.
[6] = estimated, assuming Schild slope -1.0, initial concentration 3 micromolar, read-out: PGE in guinea pig ileum, Estimated pA2 value (converted)
[7] = initial concentration 3 micromolar
[8] = Schild plot calculation, varying concentrations, read-out: PGE in guinea pig ileum (pA2) (converted)

Compound	rank order of potency in the Writhing Assay (mouse injected with PBQ)	Kb [1, 6] [µM]	PGE in guinea pig ileum, activity [1, 7]	Kb [1, 8] [µM]	also measured
CCS(=O)(=O)CCC(=O)NCC(=O)N1Cc2ccccc2Oc2ccc(Cl)cc21 [Example 1, N-[2-(8-chloro-10,11-dihydrodibenz[b,f][1,4]oxazepin-10-yl)-2-oxoethyl]-3-(ethylsulfonyl) propanamide]	Example 1>Example 2>Example 3>Example 9; also recorded: the most potent compound of the invention tested in this assay	2	Active		ED50 (mouse injected with PBQ; [4]): 5.9 mg/kg; ED50 (mouse injected with PBQ; [5]): 11.2 mg/kg
O=C(CCSCc1ccco1)NCC(=O)N1Cc2ccccc2Oc2ccc(Cl)cc21 [Example 2, N-[2-(8-chloro-10,11-dihydrodibenz[b,f][1,4]oxazepin-10-yl)-2-oxoethyl]-3[(2-furanylmethyl)thio]propanamide]	Example 1>Example 2>Example 3>Example 9		Active	0.01	ED50 (mouse injected with PBQ; [4]): 13.5 mg/kg; ED50 (mouse injected with PBQ; [5]): 14.8 mg/kg
O=C(CCc1ccncc1)NCC(=O)N1Cc2ccccc2Oc2ccc(Cl)cc21 [Example 3, N-[2-{8-chloro-10,11-dihydrodibenz[b,f][1,4]oxazepin-10-yl)-2-oxoethyl]-4-pyridinepropanamide, monohydrochloride]	Example 1>Example 2>Example 3>Example 9	2	Active		ED50 (mouse injected with PBQ; [5]): 16.9 mg/kg
O=C(CCSCc1cccs1)NCC(=O)N1Cc2ccccc2Oc2ccc(Cl)cc21 [Example 4, N-[2-(8-chlorodibenz-10-11-dihydrobenz[b,f][1,4]oxazepin-10-yl)-2-oxoethyl]-3-[(2-thenylmethyl)thio]propanamide]			Active	0.0126	
NCCC(=O)NCC(=O)N1Cc2ccccc2Oc2ccc(Cl)cc21 [Example 5, 3-Amino-N-[2-(8-chloro-10,11-dihydrodibenz[b,f][1,4]oxazepin-10-yl)-2-oxoethyl]-propanamide, monohydrochloride]			Active		PGE in guinea pig ileum, Estimated pA2 value ([1]; estimated, assuming Schild slope -1.0, initial concentration 3 micromolar): 5.5
CN(C)CCSCCC(=O)NCC(=O)N1Cc2ccccc2Oc2ccc(Cl)cc21 [Example 6, N-[2-(8-chloro,10,11-dihydrodibenz[b,f][1,4]oxazepin-10-yl)-2-oxoethyl]-3-[[2-(dimethylamino)ethyl]thio]propanamide, monohydrochloride]		1.26	Active		
O=C(CCNCc1cccs1)NCC(=O)N1Cc2ccccc2Oc2ccc(Cl)cc21 [Example 7, N-[2-(8-chloro-10,11-dihydrodibenz[b,f][1,4]oxazepin-10-yl)-2-oxoethyl)-3-[(2-thienylmethyl)amino]propanamide, monohydrochloride]			Active	0.316	
CCS(=O)(=O)CCC(=O)CNC(=O)N1Cc2ccccc2Oc2ccc(Cl)cc21 [Example 8, 8-chloro-N-[4-(ethylsulfonyl)-2-oxobutyl]dibenz[b,f][1,4]oxazepin-10(11H)-carboxamide]		2.51	Active		
O=C(CCSCc1ccco1)CNC(=O)N1Cc2ccccc2Oc2ccc(Cl)cc21 [Example 9, 8-chloro-N-[4-[(2-furanylmethyl)thio]-2-oxobutyl]dibenz[b,f][1,4]oxazepin-10(11H]-carboxamide]	Example 1>Example 2>Example 3>Example 9		Active	0.0631	
O=C(Cc1ccccc1)NNC(=O)N1Cc2ccccc2Oc2ccc(Cl)cc21 [SC-18637]					effect on stimulant actions of prostaglandins on isolated smooth muscle preparations [2]: inhibit the stimulant actions of prostaglandins on isolated smooth muscle preparations
CC(=O)NNC(=O)N1Cc2ccccc2Oc2ccc(Cl)cc21 [SC-19220]					effect on stimulant actions of prostaglandins on isolated smooth muscle preparations [2]: inhibit the stimulant actions of prostaglandins on isolated smooth muscle preparations; effect on bladder capacity [3]: increased the bladder capacity; effect on voiding efficiency of micturition [3]: reduced the voiding efficiency of micturition
